These results are taken from ChEMBL document CHEMBL5634129, “Design, synthesis, and structure-activity relationships of a novel class of quinazoline derivatives as coronavirus inhibitors” (Eur J Med Chem, 2023).

For data set [1], the system named is Human coronavirus OC43. Kind of data set: Antiviral activity against HCoV-OC43 infected in human H460 cells assessed as decrease in viral nucleocapsid protein level at 10 uM by Hoechst 33342 staining based analysis relative to control. Format: functional, NCI-H460. Also noted: scale not given: the % may be the effect or the level left.
Data set [2] relates to Human coronavirus OC43. Kind of data set: Antiviral activity against HCoV-OC43 infected in human H460 cells assessed as decrease in viral nucleocapsid protein level by Hoechst 33342 staining based analysis. It is filed as functional, organism-based. The conditions noted are these: NCI-H460, dose 0.1-10 µM.
A short description of data set [3]: Cytotoxicity in human NCI-H460 cells infected with HCoV-OC43 treated for 72 hrs by CPE inhibition assay. Format: toxicity, cell-based. The settings on record: read-out: TC50.
For data set [4], the system named is Human coronavirus OC43. Kind of data set: Antiviral activity against HCoV-OC43 infected in human NCI-H460 cells treated for 72 hrs by CPE inhibition assay. It is filed as functional, organism-based. The conditions noted are these: Betacoronavirus 1, NCI-H460, 72 h.
The test system of data set [5] is Human coronavirus OC43. Kind of data set: Antiviral activity against HCoV-OC43 infected in human H460 cells assessed as decrease in viral nucleocapsid protein mRNA level by qRT-PCR analysis. It is filed as functional, organism-based. The settings on record: NCI-H460, dose 0.1-10 µM.
Data set [6] is described as follows: Selectivity index, ratio of TC50 for human NCI-H460 cells infected with HCoV-OC43 to EC50 for HCoV-OC43 infected in human NCI-H460 cells. Format: toxicity, cell-based. The settings on record: read-out: Selectivity Index.
For data set [7], the system named is Human coronavirus OC43. Kind of data set: Antiviral activity against HCoV-OC43 infected in human H460 cells assessed as viral inhibition at early stage at 500 nM measured upto 12 hrs by Hoechst 33342 staining based analysis. Format: functional, organism-based. The settings on record: NCI-H460.
In data set [8] the test system is Human coronavirus OC43. The data set can be described thus: Antiviral activity against HCoV-OC43 infected in human H460 cells assessed as decrease in viral nucleocapsid protein level at 2 uM by Hoechst 33342 staining based analysis. It is filed as functional, organism-based. The settings on record: NCI-H460.
The test system of data set [9] is Human coronavirus OC43. The data set can be described thus: Antiviral activity against HCoV-OC43 infected in human H460 cells assessed as viral inhibition at early stage at 10 uM measured upto 12 hrs by Hoechst 33342 staining based analysis. It is filed as functional, organism-based. The conditions noted are these: NCI-H460.

Each structure is given as a SMILES string. Calls of active or inactive are those of the source. The calls are words filed in the database; no cut-off is given here.

Broadly, the EC50 is the concentration at which the effect is half-maximal. Consider `CCOc1ccc2nc(NCCN3CCOCC3)nc(Nc3cc(C(F)(F)F)cc(C(F)(F)F)c3)c2c1`, for which the Activity with Human coronavirus OC43 [1] was 100%; with Human coronavirus OC43 [2], “Dose-Dependent Effect”; in the data set on Human coronavirus OC43 [5] it was “Dose-Dependent Effect”. For the same molecule, the CC50 at 72 h in data set [3] is 5.77 µM. In the data set with Human coronavirus OC43 [4], this molecule gave an EC50 of 0.12 µM. Further, the selectivity ratio in data set [6] stood at 48.1.
`COc1ccc2ncnc(Nc3ccc(F)c(C(F)(F)F)c3)c2c1`: the CC50 at 72 h in data set [3] worked out at 26.7 µM. Further, in the data set with Human coronavirus OC43 [4], the EC50 worked out at 1.43 µM. Also, in data set [6], the selectivity ratio was 18.7.
As to `COc1cc2c(Nc3cc(C(F)(F)F)cc(C(F)(F)F)c3)ncnc2cn1`, the CC50 at 72 h in [3] amounted to 6.93 µM. This molecule also had an EC50 in the data set with Human coronavirus OC43 [4] of 0.28 µM. Also, the selectivity ratio in data set [6] is 24.8.
For `COc1ccc2ncnc(Nc3cc(Cl)cc(C(F)(F)F)c3)c2c1` the same measures were 129 µM, 1.43 µM and 90.4.
For `COC(=O)c1cc(C#N)cc(Nc2ncnc3ccc(OC)cc23)c1` the same measures were above 500 µM, 2.65 µM and above 189.
As for `CCC(CC)COC(=O)[C@H](C)N[P@](=O)(OC[C@H]1O[C@@](C#N)(c2ccc3c(N)ncnn23)[C@H](O)[C@@H]1O)Oc1ccccc1` [REMDESIVIR], the CC50 at 72 h in data set [3] is above 20 µM. This molecule registered an EC50 with Human coronavirus OC43 [4] of 0.14 µM. Moreover, the inhibition result in the data set on Human coronavirus OC43 [7] was “Active”. The selectivity ratio in data set [6] was above 143. Also, in the data set with Human coronavirus OC43 [8], the result was Active.
`FC(F)(F)c1cc(Nc2ncnc3ccc(Br)cc23)cc(C(F)(F)F)c1`: the CC50 at 72 h in [3] amounted to 2.47 µM. In the data set on Human coronavirus OC43 [4], this molecule came in with an EC50 of 0.35 µM. Also, in data set [6], the selectivity ratio was determined as 7.1.
For `CCOc1ccc2ncnc(Nc3cc(C(F)(F)F)cc(C(F)(F)F)c3)c2c1` the same measures were 219 µM, 0.69 µM and 318.
`Fc1cc(Nc2ncnc3ccc(Cl)cc23)cc(C(F)(F)F)c1`: the CC50 at 72 h in [3] came to 5.14 µM. This molecule also displayed an EC50 in the data set with Human coronavirus OC43 [4] of 2.47 µM. In [6], the selectivity ratio was found to be 2.08.
For `FC(F)(F)c1cc(Nc2ncnc3ncccc23)cc(C(F)(F)F)c1` the same measures were 32.1 µM, 5.14 µM and 6.2.
Consider `COc1ccc2ncnc(Nc3cc([N+](=O)[O-])cc(C(F)(F)F)c3)c2c1`, for which, in [3], the CC50 at 72 h was found to be 96.2 µM. Moreover, the EC50 in the data set with Human coronavirus OC43 [4] worked out at 0.69 µM. The selectivity ratio in data set [6] was found to be 140.
For `FC(F)(F)c1cc(Nc2ncnc3cc(Cl)ccc23)cc(C(F)(F)F)c1` the same measures were 1.43 µM, 0.47 µM and 3.
On the same counts, the results for `CCOc1ccc2nc(NCc3cccs3)nc(Nc3cc(C(F)(F)F)cc(C(F)(F)F)c3)c2c1` are 10.7 µM, 2.97 µM and 3.6.
On the same counts, the results for `CCCCNc1nc(Nc2cc(C(F)(F)F)cc(C(F)(F)F)c2)c2cc(OCC)ccc2n1` are 10.7 µM, 1.43 µM and 7.5.
`CCOc1ccc2nc(NCc3ccco3)nc(Nc3cc(C(F)(F)F)cc(C(F)(F)F)c3)c2c1`: the CC50 at 72 h in data set [3] came out at 10.7 µM. The same molecule registered an EC50 with Human coronavirus OC43 [4] of 1.19 µM. Also, the selectivity ratio in [6] was 9.
`COc1ccc2ncnc(Nc3cc(C#N)cc(C(F)(F)F)c3)c2c1`: in data set [3], the CC50 at 72 h amounted to 240 µM. Also, in the data set with Human coronavirus OC43 [4], a half-maximal response (EC50) required 0.48 µM. In addition, the selectivity ratio in [6] was found to be 501.
With `FC(F)(F)c1cc(Nc2ncnc3ccc(C(F)(F)F)cc23)cc(C(F)(F)F)c1`, in [3], the CC50 at 72 h stood at 4.28 µM. In the data set with Human coronavirus OC43 [4], this molecule came in with an EC50 of 0.23 µM. The selectivity ratio in data set [6] came to 18.6.
On the same counts, the results for `FC(F)(F)c1cc(Nc2ncnc3ccc(I)cc23)cc(C(F)(F)F)c1` are 7.95 µM, 0.48 µM and 16.6.
`CCOc1ccc2nc(NCCOC)nc(Nc3cc(C(F)(F)F)cc(C(F)(F)F)c3)c2c1`: the Activity is 100% in the data set with Human coronavirus OC43 [1], “Dose-Dependent Effect” in the data set with Human coronavirus OC43 [2] and “Dose-Dependent Effect” with Human coronavirus OC43 [5]. The CC50 at 72 h in data set [3] is 5.77 µM. Further, the EC50 in the data set on Human coronavirus OC43 [4] was 0.1 µM. For the same molecule, the selectivity ratio in data set [6] worked out at 57.7.
For `CCOc1ccc2nc(NCC3CCCO3)nc(Nc3cc(C(F)(F)F)cc(C(F)(F)F)c3)c2c1` (stereo not given), the inhibition result with Human coronavirus OC43 [9] is “Active”. Also, the Activity with Human coronavirus OC43 [1] was 100%; in the data set on Human coronavirus OC43 [2], “Dose-Dependent Effect”; with Human coronavirus OC43 [5] it was “Dose-Dependent Effect”. Besides, the CC50 at 72 h in [3] was determined as 96.2 µM. In the data set on Human coronavirus OC43 [4], the EC50 came to 0.09 µM. In data set [6], the selectivity ratio turned out to be 1070.
In the case of `O=[N+]([O-])c1ccc2ncnc(Nc3cc(C(F)(F)F)cc(C(F)(F)F)c3)c2c1`, the CC50 at 72 h in data set [3] is 3.56 µM. Also, a half-maximal effect in the data set on Human coronavirus OC43 [4] (EC50) was put at 0.29 µM. Further, in data set [6], the selectivity ratio came to 12.3.
On the same counts, the results for `CCOc1ccc2nc(NC3CC3)nc(Nc3cc(C(F)(F)F)cc(C(F)(F)F)c3)c2c1` are 4.81 µM, 0.31 µM and 15.5.
For `FC(F)(F)c1cc(Nc2ncnc3ccccc23)cc(C(F)(F)F)c1` the same measures were 17.2 µM, 1.43 µM and 12.1.
On the same counts, the results for `COc1ccc2ncnc(Nc3cc(F)cc(OC(F)(F)F)c3)c2c1` are 289 µM, 9.98 µM and 28.9.
For `NC(=O)c1ncn([C@@H]2O[C@H](CO)[C@@H](O)[C@H]2O)n1` [RIBAVIRIN], in [3], the CC50 at 72 h came out at 409 µM. In the data set with Human coronavirus OC43 [4], this molecule returned an EC50 of 78.8 µM. The selectivity ratio in data set [6] is 5.2.
On to `COc1ccc2ncnc(Nc3ccc(F)c(Cl)c3)c2c1`, for which the CC50 at 72 h in data set [3] was determined as 12.8 µM. Besides, the EC50 in the data set with Human coronavirus OC43 [4] came out at 3.56 µM. The selectivity ratio in [6] was 3.6.
